Experimental data published in ChEMBL document CHEMBL3885881, “DrugMatrix”.

Species on record: Rattus norvegicus
Experiment: DrugMatrix - Regimen: Daily Repeat
Assay type: toxicity, organism-based, Sprague-Dawley
Set-up: regimen Daily Repeat, gender Male, age 6-8 weeks
Conditions: in vivo, sc, 0 mg/kg, route mini-PUMP - SUBCUTANEOUS, dose level Control, vehicle 100 % SALINE; for ABSOLUTE BASOPHIL / ABSOLUTE EOSINOPHIL / ABSOLUTE LYMPHOCYTE / ABSOLUTE MONOCYTE / ABSOLUTE SEGMENTED NEUTROPHIL / BASOPHIL / EOSINOPHIL / ERYTHROCYTE COUNT / HEMATOCRIT / HEMOGLOBIN / LEUKOCYTE COUNT / LYMPHOCYTE / MEAN CORPUSCULAR HEMOGLOBIN / MEAN CORPUSCULAR HEMOGLOBIN CONCENTRATION / MEAN CORPUSCULAR VOLUME / MONOCYTE / NEUTROPHIL / NUCLEATED RED BLOOD CELLS / PLATELET COUNT: tissue Blood; for ALANINE AMINOTRANSFERASE / ALBUMIN / ALKALINE PHOSPHATASE / ASPARTATE AMINOTRANSFERASE / BLOOD UREA NITROGEN / CARBON DIOXIDE / CHLORIDE / CHOLESTEROL / CREATININE / GLUCOSE / LACTATE DEHYDROGENASE / LIPASE / PHOSPHORUS / POTASSIUM / SODIUM / TOTAL BILIRUBIN / TOTAL PROTEIN / URIC ACID: tissue Plasma

SMILES: CNC[C@H](O)c1cccc(O)c1 [PHENYLEPHRINE]
- ABSOLUTE BASOPHIL (72 h, time 3 day): 0 CELLS/uL
- ABSOLUTE EOSINOPHIL (72 h, time 3 day): 77.17 CELLS/uL
- ABSOLUTE LYMPHOCYTE (72 h, time 3 day): 14293.83 CELLS/uL
- ABSOLUTE MONOCYTE (72 h, time 3 day): 354 CELLS/uL
- ABSOLUTE SEGMENTED NEUTROPHIL (72 h, time 3 day): 1658.33 CELLS/uL
- BASOPHIL (72 h, time 3 day): 0%
- EOSINOPHIL (72 h, time 3 day): 0.5%
- ERYTHROCYTE COUNT (72 h, time 3 day): 6.27 x10E6/uL
- HEMATOCRIT (72 h, time 3 day): 36.95%
- HEMOGLOBIN (72 h, time 3 day): 13.4 G/DL
- LEUKOCYTE COUNT (72 h, time 3 day): 16.38 x10E3/uL
- LYMPHOCYTE (72 h, time 3 day): 87.17%
- MEAN CORPUSCULAR HEMOGLOBIN (72 h, time 3 day): 21.42 pg
- MEAN CORPUSCULAR HEMOGLOBIN CONCENTRATION (72 h, time 3 day): 36.27 G/DL
- MEAN CORPUSCULAR VOLUME (72 h, time 3 day): 59.03 fL
- MONOCYTE (72 h, time 3 day): 2%
- NEUTROPHIL (72 h, time 3 day): 10.33%
- NUCLEATED RED BLOOD CELLS (72 h, time 3 day): 0 /100WBC
- PLATELET COUNT (72 h, time 3 day): 904.67 x10E3/uL
- ALANINE AMINOTRANSFERASE (72 h, time 3 day): 48.33 u/L
- ALBUMIN (72 h, time 3 day): 3.82 G/DL
- ALKALINE PHOSPHATASE (72 h, time 3 day): 282.33 u/L
- ASPARTATE AMINOTRANSFERASE (72 h, time 3 day): 86.83 u/L
- BLOOD UREA NITROGEN (72 h, time 3 day): 20.17 mg/dL
- CARBON DIOXIDE (72 h, time 3 day): 34.67 mmol/L
- CHLORIDE (72 h, time 3 day): 102 MEQ/L
- CHOLESTEROL (72 h, time 3 day): 71.5 mg/dL
- CREATININE (72 h, time 3 day): 0.2 mg/dL
- GLUCOSE (72 h, time 3 day): 136.83 mg/dL
- LACTATE DEHYDROGENASE (72 h, time 3 day): 159 u/L
- LIPASE (72 h, time 3 day): 9 u/L
- PHOSPHORUS (72 h, time 3 day): 10.12 mg/dL
- POTASSIUM (72 h, time 3 day): 5.92 MEQ/L
- SODIUM (72 h, time 3 day): 147.8 MEQ/L
- TOTAL BILIRUBIN (72 h, time 3 day): 0.2 mg/dL
- TOTAL PROTEIN (72 h, time 3 day): 6.05 G/DL
- URIC ACID (72 h, time 3 day): 1.4 mg/dL
- ABSOLUTE BASOPHIL (120 h, time 5 day): 0 CELLS/uL
- ABSOLUTE EOSINOPHIL (120 h, time 5 day): 0 CELLS/uL
- ABSOLUTE LYMPHOCYTE (120 h, time 5 day): 14257.33 CELLS/uL
- ABSOLUTE MONOCYTE (120 h, time 5 day): 326 CELLS/uL
- ABSOLUTE SEGMENTED NEUTROPHIL (120 h, time 5 day): 3216.67 CELLS/uL
- BASOPHIL (120 h, time 5 day): 0%
- EOSINOPHIL (120 h, time 5 day): 0%
- ERYTHROCYTE COUNT (120 h, time 5 day): 6.11 x10E6/uL
- HEMATOCRIT (120 h, time 5 day): 36.22%
- HEMOGLOBIN (120 h, time 5 day): 13.18 G/DL
- LEUKOCYTE COUNT (120 h, time 5 day): 17.8 x10E3/uL
- LYMPHOCYTE (120 h, time 5 day): 80.5%
- MEAN CORPUSCULAR HEMOGLOBIN (120 h, time 5 day): 21.62 pg
- MEAN CORPUSCULAR HEMOGLOBIN CONCENTRATION (120 h, time 5 day): 36.42 G/DL
- MEAN CORPUSCULAR VOLUME (120 h, time 5 day): 59.37 fL
- MONOCYTE (120 h, time 5 day): 1.83%
- NEUTROPHIL (120 h, time 5 day): 17.67%
- NUCLEATED RED BLOOD CELLS (120 h, time 5 day): 0 /100WBC
- PLATELET COUNT (120 h, time 5 day): 1311 x10E3/uL
- ALANINE AMINOTRANSFERASE (120 h, time 5 day): 47 u/L
- ALBUMIN (120 h, time 5 day): 3.83 G/DL
- ALKALINE PHOSPHATASE (120 h, time 5 day): 260.33 u/L
- ASPARTATE AMINOTRANSFERASE (120 h, time 5 day): 76.17 u/L
- BLOOD UREA NITROGEN (120 h, time 5 day): 14.67 mg/dL
- CARBON DIOXIDE (120 h, time 5 day): 31.33 mmol/L
- CHLORIDE (120 h, time 5 day): 101.17 MEQ/L
- CHOLESTEROL (120 h, time 5 day): 75 mg/dL
- CREATININE (120 h, time 5 day): 0.16 mg/dL
- GLUCOSE (120 h, time 5 day): 152.67 mg/dL
- LACTATE DEHYDROGENASE (120 h, time 5 day): 147.33 u/L
- LIPASE (120 h, time 5 day): 9.33 u/L
- PHOSPHORUS (120 h, time 5 day): 10.97 mg/dL
- POTASSIUM (120 h, time 5 day): 6 MEQ/L
- SODIUM (120 h, time 5 day): 145.52 MEQ/L
- TOTAL BILIRUBIN (120 h, time 5 day): 0.17 mg/dL
- TOTAL PROTEIN (120 h, time 5 day): 5.83 G/DL
- URIC ACID (120 h, time 5 day): 1.27 mg/dL
- ABSOLUTE BASOPHIL ([…], time 14 day): 0 CELLS/uL
- ABSOLUTE EOSINOPHIL ([…], time 14 day): 64.5 CELLS/uL
- ABSOLUTE LYMPHOCYTE ([…], time 14 day): 12507.83 CELLS/uL
- ABSOLUTE MONOCYTE ([…], time 14 day): 380.33 CELLS/uL
- ABSOLUTE SEGMENTED NEUTROPHIL ([…], time 14 day): 2414 CELLS/uL
- BASOPHIL ([…], time 14 day): 0%
- EOSINOPHIL ([…], time 14 day): 0.5%
- ERYTHROCYTE COUNT ([…], time 14 day): 6.1 x10E6/uL
- HEMATOCRIT ([…], time 14 day): 35.4%
- HEMOGLOBIN ([…], time 14 day): 12.88 G/DL
- LEUKOCYTE COUNT ([…], time 14 day): 15.37 x10E3/uL
- LYMPHOCYTE ([…], time 14 day): 80.83%
- MEAN CORPUSCULAR HEMOGLOBIN ([…], time 14 day): 21.18 pg
- MEAN CORPUSCULAR HEMOGLOBIN CONCENTRATION ([…], time 14 day): 36.43 G/DL
- MEAN CORPUSCULAR VOLUME ([…], time 14 day): 58.17 fL
- MONOCYTE ([…], time 14 day): 2.17%
- NEUTROPHIL ([…], time 14 day): 16.5%
- NUCLEATED RED BLOOD CELLS ([…], time 14 day): 0.17 /100WBC
- PLATELET COUNT ([…], time 14 day): 1016 x10E3/uL
- ALANINE AMINOTRANSFERASE ([…], time 14 day): 53.33 u/L
- ALBUMIN ([…], time 14 day): 3.93 G/DL
- ALKALINE PHOSPHATASE ([…], time 14 day): 319.83 u/L
- ASPARTATE AMINOTRANSFERASE ([…], time 14 day): 84 u/L
- BLOOD UREA NITROGEN ([…], time 14 day): 15.5 mg/dL
- CARBON DIOXIDE ([…], time 14 day): 34 mmol/L
- CHLORIDE ([…], time 14 day): 101.83 MEQ/L
- CHOLESTEROL ([…], time 14 day): 57 mg/dL
- CREATININE ([…], time 14 day): 0.21 mg/dL
- GLUCOSE ([…], time 14 day): 182.33 mg/dL
- LACTATE DEHYDROGENASE ([…], time 14 day): 104.67 u/L
- LIPASE ([…], time 14 day): 9.17 u/L
- PHOSPHORUS ([…], time 14 day): 11.12 mg/dL
- POTASSIUM ([…], time 14 day): 5.81 MEQ/L
- SODIUM ([…], time 14 day): 144.85 MEQ/L
- TOTAL BILIRUBIN ([…], time 14 day): 0.18 mg/dL
- TOTAL PROTEIN ([…], time 14 day): 5.92 G/DL
- URIC ACID ([…], time 14 day): 1.38 mg/dL
